Source: patent US10874743B2, “IRAK degraders and uses thereof” (Kymera Therapeutics, Inc., priority 2017, dated 2020)

Legend:
Assay type in all cases: cell-based
[1] = biological target: T1, IRAK4 (Homo sapiens, UniProt Q9NWZ3); experiment: OCI-LY-10 degradation assay (western blot, % IRAK4 degraded after 4 hours); design: endogenous in cells; host or cells: OCI-LY10; settings: OCI-LY10 cells, 4 hours; for OCI-LY10 % IRAK4 Degradation (0.01 uM): 0.01 uM compound; for OCI-LY10 % IRAK4 Degradation (0.1 uM): 0.1 uM compound; for OCI-LY10 % IRAK4 Degradation (1 uM): 1 uM compound
T1 sequence (Q9NWZ3 1-460): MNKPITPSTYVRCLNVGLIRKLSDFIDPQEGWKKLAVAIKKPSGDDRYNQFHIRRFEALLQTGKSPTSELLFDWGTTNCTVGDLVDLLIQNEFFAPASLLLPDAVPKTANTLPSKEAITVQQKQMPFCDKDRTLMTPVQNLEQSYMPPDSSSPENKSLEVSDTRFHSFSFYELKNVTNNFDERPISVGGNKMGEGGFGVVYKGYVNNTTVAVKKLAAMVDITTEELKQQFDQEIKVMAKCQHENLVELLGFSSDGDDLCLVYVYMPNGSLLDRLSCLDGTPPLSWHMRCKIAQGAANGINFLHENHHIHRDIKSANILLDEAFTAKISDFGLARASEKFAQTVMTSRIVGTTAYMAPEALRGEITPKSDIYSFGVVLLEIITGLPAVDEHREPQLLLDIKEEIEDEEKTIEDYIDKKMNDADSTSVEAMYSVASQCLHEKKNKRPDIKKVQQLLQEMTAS
Method in brief: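 OCI-LY10 cells (RPMI-1640, 20% FBS, 55 μM 2-ME) treated with compound at 0.003-10 μM final for 4 h at 37° C, then lysed in RIPA buffer. IRAK4 level read by fluorescent western blot (20-25 μg protein) and binned as % degraded: A >50%, B >20-50%, C <20%.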

[2] = biological target: T1, IRAK4; experiment: OCI-LY-10 MSD assay for IRAK4 DC50; design: endogenous in cells; host or cells: OCI-LY10; settings: OCI-LY10 cells, 4 hr incubation, concentration required to degrade 50% of protein
Method in brief: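 OCI-Ly10 cells were exposed to compound for 4 hr across a 3-fold, 8-point dilution series. Lysates were made in RIPA buffer, and IRAK4 remaining was measured by MSD sandwich immunoassay with anti-IRAK4 capture and detection antibodies. DC50 was taken from a four-parameter logistic fit.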

[3] = system: OCI-LY10 cells; experiment: OCI-LY-10 CTG cell viability assay (EC50); settings: Homo sapiens, 96 h, CellTiter-Glo cell viability, 4 days incubation, top concentration 10 μM, read-out: OCI-LY10 IRAK4 EC50
Experimental: A CTG cell viability assay using OCI-LY-10 cells was run to determine compound-mediated cell viability (EC50).
Compound-mediated viability effect on OCI-LY10 was quantitatively determined using the CellTiter-Glo® Luminescent Cell Viability Assay kit from Promega (Catalog number G7570) following manufacturer's recommended procedures. […] Compounds were then added to the assay plate with final top concentration of 10 μM and 1:3 dilution series with total of 9 doses. The final DMSO concentration was normalized to 0.2%. The assay plates were incubated at 37° C. for 4 days under 5% CO2. Then the assay plate was equilibrated at room temperature for 10 minutes. […] The data was then analyzed by software Prism 7.0 from GraphPad and the dose response curves were fit using a three-parameter logistic equation to calculate EC50.

Row | Structure (SMILES) | OCI-LY10 % IRAK4 Degradation (0.01 uM) [1] | OCI-LY10 % IRAK4 Degradation (0.1 uM) [1] | OCI-LY10 % IRAK4 Degradation (1 uM) [1] | DC50 [2] | EC50 [3]
1 | O=C1CCC(N2C(=O)c3ccc(NCCOCCN4CC5(CN(CCOCCNCc6ccc(-n7cc(NC(=O)c8coc(-c9ccnc(NCC%10CC%10)c9)n8)c(C(F)F)n7)cc6)C5)C4)cc3C2=O)C(=O)N1 (centres unmarked) [I-351] | C (<20% degradation) | C (<20% degradation) | A (>50% degradation) | 100 to 500 nM | 
2 | Cn1cc(-c2nc(C(=O)Nc3cn(-c4ccc(CNCCOCCOCCNc5cccc6c5C(=O)N(C5CCC(=O)NC5=O)C6=O)cc4)nc3C(F)F)co2)cn1 (centres unmarked) [I-352] | C (<20% degradation) | C (<20% degradation) | C (<20% degradation) | > 1000 nM | 
3 | CN(CCCc1cccc2c1C(=O)N(C1CCC(=O)NC1=O)C2=O)Cc1ccc(-n2cc(NC(=O)c3coc(-c4ccnc(NCC(F)(F)F)c4)n3)c(C(F)F)n2)cc1 (centres unmarked) [I-360] | B (>20-50% degradation) | C (<20% degradation) | C (<20% degradation) | > 1000 nM | 
4 | O=C1CCC(N2C(=O)c3cccc(CCCNCc4ccc(-n5cc(NC(=O)c6coc(-c7ccncc7)n6)c(C(F)F)n5)cc4)c3C2=O)C(=O)N1 (centres unmarked) [I-366] | C (<20% degradation) | C (<20% degradation) | C (<20% degradation) | > 1000 nM | 
5 | O=C1CCC(N2C(=O)c3ccc(CCCNCc4ccc(-n5cc(NC(=O)c6coc(-c7ccnc(NCC8CC8)c7)n6)c(C(F)F)n5)cc4)cc3C2=O)C(=O)N1 (centres unmarked) [I-371] | C (<20% degradation) | C (<20% degradation) | B (>20-50% degradation) | > 1000 nM | 
6 | O=C1CCC(N2C(=O)c3ccc(CCCOCCNCc4ccc(-n5cc(NC(=O)c6coc(-c7ccnc(NCC8CC8)c7)n6)c(C(F)F)n5)cc4)cc3C2=O)C(=O)N1 (centres unmarked) [I-381] | B (>20-50% degradation) | A (>50% degradation) | A (>50% degradation) | < 50 nM | 
7 | O=C1CCC(N2C(=O)c3cccc(NC4CCN(CCOCCOCCOCCNCc5ccc(-n6cc(NC(=O)c7coc(-c8ccnc(NCC9CC9)c8)n7)c(C(F)F)n6)cc5)CC4)c3C2=O)C(=O)N1 (centres unmarked) [I-386] | C (<20% degradation) | B (>20-50% degradation) | A (>50% degradation) | 100 to 500 nM | 
8 | O=C1CCC(N2Cc3cc(NC4CCN(CCOCCOCCNCc5ccc(-n6cc(NC(=O)c7coc(-c8ccnc(NCC9CC9)c8)n7)c(C(F)F)n6)cc5)CC4)ccc3C2=O)C(=O)N1 (centres unmarked) [I-387] | C (<20% degradation) | C (<20% degradation) | B (>20-50% degradation) | > 1000 nM | 
9 | O=C1CCC(N2C(=O)c3ccc(NC4CCN(CCOCCOCCOCCNCc5ccc(-n6cc(NC(=O)c7coc(-c8ccnc(NCC9CC9)c8)n7)c(C(F)F)n6)cc5)CC4)cc3C2=O)C(=O)N1 (centres unmarked) [I-389] | C (<20% degradation) | C (<20% degradation) | A (>50% degradation) | 500 to 1000 nM | 
10 | O=C1CCC(N2Cc3cc(N4CCN(CCOCCOCCNCc5ccc(-n6cc(NC(=O)c7coc(-c8ccnc(NCC9CC9)c8)n7)c(C(F)F)n6)cc5)CC4)ccc3C2=O)C(=O)N1 (centres unmarked) [I-392] | B (>20-50% degradation) | A (>50% degradation) | A (>50% degradation) | 50 to 100 nM | 
11 | O=C1CCC(N2C(=O)c3ccc(N4CCN(CCOCCNCc5ccc(-n6cc(NC(=O)c7coc(-c8ccnc(NCC9CC9)c8)n7)c(C(F)F)n6)cc5)CC4)cc3C2=O)C(=O)N1 (centres unmarked) [I-393] | C (<20% degradation) | A (>50% degradation) | A (>50% degradation) | 100 to 500 nM | 
12 | O=C1CCC(N2C(=O)c3ccc(N4CCN(CCOCCOCCOCCNCc5ccc(-n6cc(NC(=O)c7coc(-c8ccnc(NCC9CC9)c8)n7)c(C(F)F)n6)cc5)CC4)cc3C2=O)C(=O)N1 (centres unmarked) [I-394] | C (<20% degradation) | A (>50% degradation) | A (>50% degradation) | 100 to 500 nM | 
13 | NC(=O)c1nn(-c2ccc(CNCCOCCOCCN3CCC(Nc4cccc5c4C(=O)N(C4CCC(=O)NC4=O)C5=O)CC3)cc2)cc1NC(=O)c1coc(-c2ccnc(NCC3CC3)c2)n1 (centres unmarked) [I-395] | C (<20% degradation) | B (>20-50% degradation) | B (>20-50% degradation) | > 1000 nM | 
14 | CN(CCNCCCc1ccc2c(c1)C(=O)N(C1CCC(=O)NC1=O)C2=O)C(=O)c1ccc(-n2cc(NC(=O)c3coc(-c4ccnc(NCC5CC5)c4)n3)c(C(N)=O)n2)cc1 (centres unmarked) [I-397] | B (>20-50% degradation) | A (>50% degradation) | A (>50% degradation) | < 50 nM | 
15 | NC(=O)c1nn(-c2ccc(C(=O)NCCOCCOCCNc3cccc4c3C(=O)N(C3CCC(=O)NC3=O)C4=O)cc2)cc1NC(=O)c1coc(-c2ccnc(N)c2)n1 (centres unmarked) [I-427] | B (>20-50% degradation) | A (>50% degradation) | A (>50% degradation) | < 50 nM | 
16 | Cn1c(=O)n(C2CCC(=O)NC2=O)c2ccc(CCCOCCOCCNC(c3ccc(-n4cc(NC(=O)c5coc(-c6ccnc(NCC7CC7)c6)n5)c(C(N)=O)n4)cc3)C(F)(F)F)cc21 (centres unmarked) [I-448] |  |  |  |  | 100 to 500 nM
17 | Cn1cc(NC(=O)c2coc(-c3ccnc(NCC(F)(F)F)c3)n2)c(C(=O)NCCOCCOCCOCCOCCCc2cccc3c2n(C)c(=O)n3C2CCC(=O)NC2=O)n1 (centres unmarked) [I-455] |  |  |  |  | > 1000 nM
18 | Cn1cc(NC(=O)c2coc(-c3ccnc(NCC(F)(F)F)c3)n2)c(C(=O)NC2CCN(CCOCCOCCOCCOCCCc3cccc4c3n(C)c(=O)n4C3CCC(=O)NC3=O)CC2)n1 (centres unmarked) [I-457] |  |  |  |  | > 1000 nM
19 | O=C1CCC(N2Cc3cc(CNC(=O)NCCOCCOCCNC(=O)n4cc(NC(=O)c5coc(-c6ccnc(NCC7CC7)c6)n5)c(C(F)F)n4)ccc3C2=O)C(=O)N1 (centres unmarked) [I-458] |  |  |  |  | 50 to 100 nM
20 | Cn1cc(NC(=O)c2coc(-c3ccnc(NCC(F)(F)F)c3)n2)c(C(=O)NCCOCCOCCOCCCc2cccc3c2n(C)c(=O)n3C2CCC(=O)NC2=O)n1 (centres unmarked) [I-464] |  |  |  |  | > 1000 nM
